pIC50: −log10 of the molar value.
Biological target: human TRPA1 (Homo sapiens (Human), UniProt O75762)
Test: Measurement of TRPA1 antagonist activity (1): intracellular calcium increase
Type: cell-based
Details: 293T cells transfected with human TRPA1 expression plasmid; allylisothiocyanate 20 μM stimulation; intracellular calcium fluorescence; read-out: hTRPA1 IC50
In short: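 Calcium-flux readout of TRPA1 block: compound given 10 min before 20 μM (final) allylisothiocyanate, fluorescence tracked 5 min. Cells were 293T transiently expressing human TRPA1, dye-loaded 1 hr in HBSS, 20 mM HEPES, pH 7.2. Inhibition scaled between agonist-only and buffer-only responses; IC50 by sigmoid fitting.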

human TRPA1, sequence (O75762 whole entry): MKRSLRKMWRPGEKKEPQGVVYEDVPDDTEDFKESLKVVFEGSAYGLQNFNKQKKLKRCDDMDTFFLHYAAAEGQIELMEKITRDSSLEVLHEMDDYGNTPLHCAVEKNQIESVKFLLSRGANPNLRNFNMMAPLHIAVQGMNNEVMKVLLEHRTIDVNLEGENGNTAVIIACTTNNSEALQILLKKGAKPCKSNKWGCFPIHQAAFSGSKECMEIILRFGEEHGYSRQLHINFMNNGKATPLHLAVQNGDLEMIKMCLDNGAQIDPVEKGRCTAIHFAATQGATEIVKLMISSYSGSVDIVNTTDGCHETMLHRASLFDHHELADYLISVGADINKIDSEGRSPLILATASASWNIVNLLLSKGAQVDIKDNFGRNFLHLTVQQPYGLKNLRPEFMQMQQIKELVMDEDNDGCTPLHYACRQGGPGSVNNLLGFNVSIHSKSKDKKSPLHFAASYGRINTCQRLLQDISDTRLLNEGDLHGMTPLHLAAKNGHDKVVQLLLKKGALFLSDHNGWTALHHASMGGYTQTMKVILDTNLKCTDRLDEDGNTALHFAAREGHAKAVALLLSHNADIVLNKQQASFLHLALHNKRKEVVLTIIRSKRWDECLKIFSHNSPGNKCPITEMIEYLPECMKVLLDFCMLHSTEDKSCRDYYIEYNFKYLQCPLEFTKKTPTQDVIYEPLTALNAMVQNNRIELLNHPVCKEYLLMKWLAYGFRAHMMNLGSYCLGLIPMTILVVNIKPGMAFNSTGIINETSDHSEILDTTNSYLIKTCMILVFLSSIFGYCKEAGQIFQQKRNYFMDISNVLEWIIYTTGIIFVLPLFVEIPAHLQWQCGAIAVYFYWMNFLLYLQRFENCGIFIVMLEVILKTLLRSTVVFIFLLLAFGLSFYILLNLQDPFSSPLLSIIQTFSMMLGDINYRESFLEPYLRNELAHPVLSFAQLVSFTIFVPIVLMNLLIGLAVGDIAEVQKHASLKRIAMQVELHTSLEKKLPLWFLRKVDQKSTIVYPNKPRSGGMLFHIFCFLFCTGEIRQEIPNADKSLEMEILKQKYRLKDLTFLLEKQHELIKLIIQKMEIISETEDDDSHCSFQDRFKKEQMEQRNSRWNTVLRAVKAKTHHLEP

| pIC50 | Compound |
| --- | --- |
| 7.11 | C[C@H](NS(=O)(=O)c1cc2cc(F)ccc2o1)C(=O)NCc1cccc(-c2ncc(C(F)(F)F)cn2)c1 [Example 232, (2S)-2-[(5-fluorobenzofuran-2-yl)sulfonylamino]-N-[[3-[5-(trifluoromethyl)pyrimidin-2-yl]phenyl]methyl]propanamide] |
| 8.00 | C[C@H](NS(=O)(=O)c1cc2cc(F)ccc2o1)C(=O)NCc1cccc(-c2cnc(C(F)(F)F)nc2)c1 [Example 233, (2S)-2-[(5-fluorobenzofuran-2-yl)sulfonylamino]-N-[[3-[2-(trifluoromethyl)pyrimidin-5-yl]phenyl]methyl]propanamide] |
| 7.47 | C[C@H](NS(=O)(=O)c1cc2cc(F)ccc2o1)C(=O)NCc1cccc(-c2cnc(C(F)(F)F)cn2)c1 [Example 234, (2S)-2-[(5-fluorobenzofuran-2-yl)sulfonylamino]-N-[[3-[5-(trifluoromethyl)pyrazin-2-yl]phenyl]methyl]propanamide] |
| 7.70 | C[C@H](NS(=O)(=O)c1cc2cc(F)ccc2o1)C(=O)NCc1cccc(-c2ccc(C(F)(F)F)nn2)c1 [Example 235, (2S)-2-[(5-fluorobenzofuran-2-yl)sulfonylamino]-N-[[3-[6-(trifluoromethyl)pyridazin-3-yl]phenyl]methyl]propanamide] |
| 7.51 | C[C@H](NS(=O)(=O)c1cc2cc(F)ccc2o1)C(=O)NCc1ccnc(-c2ccc(C(F)(F)F)nc2)c1 [Example 236, (2S)-2-[(5-fluorobenzofuran-2-yl)sulfonylamino]-N-[[2-[6-(trifluoromethyl)-3-pyridyl]-4-pyridyl]methyl]propanamide] |
| 6.57 | C[C@H](NS(=O)(=O)c1cc2cc(F)ccc2o1)C(=O)NCc1ccnc(-c2ccc(C(F)(F)F)cn2)c1 [Example 237, (2S)-2-[(5-fluorobenzofuran-2-yl)sulfonylamino]-N-[[2-[5-(trifluoromethyl)-2-pyridyl]-4-pyridyl]methyl]propanamide] |
| 7.38 | C[C@H](NS(=O)(=O)c1cc2cc(F)ccc2o1)C(=O)NCc1ccnc(-c2cnc(C(F)(F)F)nc2)c1 [Example 238, (2S)-2-[(5-fluorobenzofuran-2-yl)sulfonylamino]-N-[[2-[2-(trifluoromethyl)pyrimidin-5-yl]-4-pyridyl]methyl]propanamide] |
| 7.77 | C[C@H](NS(=O)(=O)c1cc2cc(F)ccc2o1)C(=O)NCc1cc(-c2ccc(OC(F)(F)F)cc2)ccn1 [Example 239, (2S)-2-[(5-fluorobenzofuran-2-yl)sulfonylamino]-N-[[4-[4-(trifluoromethoxy)phenyl]-2-pyridyl]methyl]propanamide] |
| 7.85 | C[C@H](NS(=O)(=O)c1cc2cc(F)ccc2o1)C(=O)NCc1cc(-c2ccc(C(F)(F)F)cn2)ccn1 [Example 240, (2S)-2-[(5-fluorobenzofuran-2-yl)sulfonylamino]-N-[[4-[5-(trifluoromethyl)-2-pyridyl]-2-pyridyl]methyl]propanamide] |
| 7.12 | C[C@H](NS(=O)(=O)c1cc2cc(F)ccc2o1)C(=O)NCc1cc(-c2cnc(C(F)(F)F)nc2)ccn1 [Example 241, (2S)-2-[(5-fluorobenzofuran-2-yl)sulfonylamino]-N-[[4-[2-(trifluoromethyl)pyrimidin-5-yl]-2-pyridyl]methyl]propanamide] |
| 6.80 | C[C@H](NS(=O)(=O)c1cc2cc(F)ccc2o1)C(=O)NCc1cc(-c2ncc(C(F)(F)F)cn2)ccn1 [Example 242, (2S)-2-[(5-fluorobenzofuran-2-yl)sulfonylamino]-N-[[4-[5-(trifluoromethyl)pyrimidin-2-yl]-2-pyridyl]methyl]propanamide] |
| 7.26 | C[C@H](NS(=O)(=O)c1cc2cc(F)ccc2o1)C(=O)NCc1cc(-c2cnc(C(F)(F)F)cn2)ccn1 [Example 243, (2S)-2-[(5-fluorobenzofuran-2-yl)sulfonylamino]-N-[[4-[5-(trifluoromethyl)pyrazin-2-yl]-2-pyridyl]methyl]propanamide] |
| 7.36 | C[C@H](NS(=O)(=O)c1cc2cc(F)ccc2o1)C(=O)NCc1cc(-c2ccc(C(F)(F)F)nn2)ccn1 [Example 244, (2S)-2-[(5-fluorobenzofuran-2-yl)sulfonylamino]-N-[[4-[6-(trifluoromethyl)pyridazin-3-yl]-2-pyridyl]methyl]propanamide] |
| 6.92 | C[C@H](NS(=O)(=O)c1cc2cc(F)ccc2o1)C(=O)NCc1cncc(-c2ccc(C(F)(F)F)nc2)c1 [Example 245, (2S)-2-[(5-fluorobenzofuran-2-yl)sulfonylamino]-N-[[5-[6-(trifluoromethyl)-3-pyridyl]-3-pyridyl]methyl]propanamide] |
| 6.96 | C[C@H](NS(=O)(=O)c1cc2cc(F)ccc2o1)C(=O)NCc1cncc(-c2ccc(C(F)(F)F)cn2)c1 [Example 246, (2S)-2-[(5-fluorobenzofuran-2-yl)sulfonylamino]-N-[[5-[5-(trifluoromethyl)-2-pyridyl]-3-pyridyl]methyl]propanamide] |
| 7.19 | C[C@H](NS(=O)(=O)c1cc2cc(F)ccc2o1)C(=O)NCc1cc(-c2ccc(C(F)(F)F)cn2)ncn1 [Example 247, (2S)-2-[(5-fluorobenzofuran-2-yl)sulfonylamino]-N-[[6-[5-(trifluoromethyl)-2-pyridyl]pyrimidin-4-yl]methyl]propanamide] |
| 7.70 | C[C@H](NS(=O)(=O)c1cc2cc(F)ccc2o1)C(=O)NCc1cc(-c2cnc(C(F)(F)F)nc2)ncn1 [Example 248, (2S)-2-[(5-fluorobenzofuran-2-yl)sulfonylamino]-N-[[6-[2-(trifluoromethyl)pyrimidin-5-yl]pyrimidin-4-yl]methyl]propanamide] |
| 6.77 | C[C@H](NS(=O)(=O)c1cc2cc(F)ccc2o1)C(=O)NCc1cnnc(-c2ccc(C(F)(F)F)cc2)c1 [Example 249, (2S)-2-[(5-fluorobenzofuran-2-yl)sulfonylamino]-N-[[6-[4-(trifluoromethyl)phenyl]-pyridazin-4-yl]methyl]propanamide] |
| 7.14 | C[C@H](NS(=O)(=O)c1cc2cc(F)ccc2o1)C(=O)NCc1cc(-c2ccc(C(F)(F)F)cc2)cnn1 [Example 250, (2S)-2-[(5-fluorobenzofuran-2-yl)sulfonylamino]-N-[[5-[4-(trifluoromethyl)phenyl]-pyridazin-3-yl]methyl]propanamide] |
| 6.48 | C[C@H](NS(=O)(=O)c1cc2cc(F)ccc2o1)C(=O)NCc1cc(-c2ccc(C(F)(F)F)cn2)cnn1 [Example 251, (2S)-2-[(5-fluorobenzofuran-2-yl)sulfonylamino]-N-[[5-[5-(trifluoromethyl)-2-pyridyl]pyridazin-3-yl]methyl]propanamide] |
| 7.85 | C[C@H](NS(=O)(=O)c1cc2cc(F)ccc2o1)C(=O)NCc1ccc(O)c(-c2ccc(C(F)(F)F)cn2)c1 [Example 252, (2S)-2-[(5-fluorobenzofuran-2-yl)sulfonylamino]-N-[[4-hydroxy-3-[5-(trifluoromethyl)-2-pyridyl]-phenyl]methyl]propanamide] |
| 6.80 | C[C@H](NS(=O)(=O)c1cc2cc(F)ccc2o1)C(=O)NCc1ccc(O)c(-c2ncc(C(F)(F)F)cn2)c1 [Example 253, (2S)-2-[(5-fluorobenzofuran-2-yl)sulfonylamino]-N-[[4-hydroxy-3-[5-(trifluoromethyl)pyrimidin-2-yl]phenyl]methyl]propanamide] |
| 7.10 | C[C@H](NS(=O)(=O)c1cc2cc(F)ccc2o1)C(=O)NCc1ccc(O)c(-c2cnc(C(F)(F)F)cn2)c1 [Example 254, (2S)-2-[(5-fluorobenzofuran-2-yl)sulfonylamino]-N-[[4-hydroxy-3-[5-(trifluoromethyl)pyrazin-2-yl]phenyl]methyl]propanamide] |
| 7.77 | C[C@H](NS(=O)(=O)c1cc2cc(F)ccc2o1)C(=O)NCc1cc(-c2ccc(C(F)(F)F)cn2)c(O)cn1 [Example 255, (2S)-2-[(5-fluorobenzofuran-2-yl)sulfonylamino]-N-[[5-hydroxy-4-[5-(trifluoromethyl)-2-pyridyl]-2-pyridyl]methyl]propanamide] |
| 7.04 | O=C(NCc1cc(-c2ccc(C(F)(F)F)cn2)ccn1)[C@@H]1C[C@@H](O)CN1S(=O)(=O)c1cc2cc(F)ccc2o1 [Example 256, (2S,4R)-1-(5-fluorobenzofuran-2-yl)sulfonyl-4-hydroxy-N-[[4-[5-(trifluoromethyl)-2-pyridyl]-2-pyridyl]methyl]pyrrolidine-2-carboxamide] |
| 7.19 | O=C(NCc1cc(-c2ccc(C(F)(F)F)cn2)ccn1)[C@@H]1[C@H]2C[C@H]2CN1S(=O)(=O)c1cc2cc(F)ccc2o1 [Example 257, (1R,4S,5S)-3-(5-fluorobenzofuran-2-yl)sulfonyl-N-[[4-[5-(trifluoromethyl)-2-pyridyl]-2-pyridyl]methyl]-3-azabicyclo[3.1.0]hexane-4-carboxamide] |
| 8.72 | O=C(NCc1cc(-c2ccc(C(F)(F)F)cn2)ccn1)[C@@H]1C[C@H]2C[C@H]2N1S(=O)(=O)c1cc2cc(F)ccc2o1 [Example 258, (1R,3S,5R)-4-(5-fluorobenzofuran-2-yl)sulfonyl-N-[[4-[5-(trifluoromethyl)-2-pyridyl]-2-pyridyl]methyl]-4-azabicyclo[3.1.0]hexane-3-carboxamide] |
| 8.92 | O=C(NCc1cc(-c2ccc(C(F)(F)F)cn2)ccn1)[C@@H]1C[C@@H]2C[C@@H]2N1S(=O)(=O)c1cc2cc(F)ccc2o1 [Example 259, (1S,3S,5S)-4-(5-fluorobenzofuran-2-yl)sulfonyl-N-[[4-[5-(trifluoromethyl)-2-pyridyl]-2-pyridyl]methyl]-4-azabicyclo[3.1.0]hexane-3-carboxamide] |
| 7.29 | O=C(NCc1cc(-c2ccc(C(F)(F)F)cn2)ccn1)[C@@H]1C[C@@H](c2ccccc2)CN1S(=O)(=O)c1cc2cc(F)ccc2o1 [Example 260, (2S,4S)-1-(5-fluorobenzofuran-2-yl)sulfonyl-4-phenyl-N-[[4-[5-(trifluoromethyl)-2-pyridyl]-2-pyridyl]methyl]pyrrolidine-2-carboxamide] |

Source: patent publication US10626112B2, “Heterocyclic sulfonamide derivative and medicine comprising same” (EA PHARMA CO., LTD., priority 2014, dated 2020)
